Measurements: ChEMBL document CHEMBL1201862, “PubChem BioAssay data set” (2004)
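These data come from cells grown in 96-well plates and exposed to compound for 48 hours at five concentrations. GI50 is the concentration that inhibits growth by half.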 Active and inactive are the calls of the source. No stated cut-off is given here; in the data, active = GI50 up to about 1.1 µM and inactive = higher.

What was measured:
Experiment in all cases: DTP human tumour cell line panel, 48 h
[1] = test system: MOLT-4
[2] = test system: SNB-75
[3] = test system: SW-620
[4] = test system: A549
[5] = test system: MDA-MB-231
[6] = test system: NCI/ADR-RES
[7] = test system: SK-MEL-5
[8] = test system: HCC 2998
[9] = test system: M14
[10] = test system: SK-MEL-2
[11] = test system: U-251
[12] = test system: ACHN
[13] = test system: MDA-MB-435
[14] = test system: SF-539
[15] = test system: HT-29
[16] = test system: KM12
[17] = test system: OVCAR-5
[18] = test system: OVCAR-3
[19] = test system: NCI-H226
[20] = test system: RXF 393

Measured: GI50

COc1ccc2nc3ccccc3c(NCCCN(C)CCCl)c2c1
active: [1] < 13.3 nM | [2] 224 nM | [3] 49.7 nM | [4] 235 nM | [5] 641 nM | [6] 313 nM | [7] 365 nM | [8] 388 nM | [9] 453 nM | [10] 557 nM | [11] 287 nM | [12] 105 nM | [13] 298 nM | [14] 249 nM | [15] 99.8 nM | [16] 426 nM | [17] 497 nM | [18] 682 nM | [19] 226 nM | [20] 284 nM
